Patent US8653023B1, “Dual beneficial effect of dopamine enhancing and neuroprotective actions of PKC delta inhibitors for treatment of Parkinson's disease” (Iowa State University Research Foundation, Inc., priority 2006, dated 2014)

What was measured:
casein kinase II = conditions: cited from earlier work
PP2A = PP2A phosphatase activity in N27 cells (Serine/Threonine phosphatase assay kit); format: cell-based, rat; conditions: rottlerin vs DMSO, PKCδ-DN vs LacZ
Experimental: To determine PP2A phosphatase activity, we used the Serine/Threonine phosphatase assay kit from Promega. Briefly, N27 cells and substantia nigral tissue from mouse brain were homogenized in lysis buffer (25 mM Tris-HCl, 10 mM β-mercaptoethanol, 2 mM EDTA, protease inhibitor) supplied with the kit. After centrifugation, the supernatants were used for the assay. PP2A activity was determined by measuring the amount of free phosphate generated in a reaction by measuring the absorbance of a molybdate:malachite green: phosphate complex at 600 nm using the Spectramax plate reader (Molecular Devices). The effective range for the detection of phosphate released in this assay is 100-4,000 pmol of phosphate.

[1] = tested on: tyrosine hydroxylase (TH); experiment: TH phosphorylation in PC12 cells (immunoblot, immunofluorescence); format: cell-based; conditions: 3 μM rottlerin for 3 hr
Experimental: (§1) PC12 cells, differentiated N27 dopaminergic cells and primary mesencephalic neurons were exposed to 1-10 μM rottlerin for the duration of the experiment. DMSO (0.01%) was used as vehicle control. PKCδ-DN- and Lac Z-expressing N27 cells were only treated with 0.01% DMSO. […] Untreated or vehicle treated cells were used as control samples.
Cell and brain lysates containing equal amounts of protein were loaded in each lane and separated on a 10-12% SDS-PAGE gel as described previously (Kaul et al., 2003). After the separation, proteins were transferred to nitrocellulose membrane, and nonspecific binding sites were blocked by treating with 5% nonfat dry milk powder. The membranes were then treated with primary antibodies directed against PKCδ (rabbit polyclonal or mouse monoclonal, 1:2000 dilution), TH (rabbit polyclonal or mouse monoclonal, 1:1000), phospho TH-ser40 (rabbit polyclonal, 1:1000), phospho TH-ser31 TH (rabbit polyclonal, 1:1000), or PP2A (mouse monoclonal, 1:1000). The primary antibody treatments were followed by treatment with secondary HRP-conjugated anti-rabbit or anti-mouse IgG (1:2000) for 1 hr at RT. Secondary antibody-bound proteins were detected using Amersham's ECL chemiluminescence kit. To confirm equal protein loading, blots were reprobed with a β-actin antibody (1:5000 dilution). Western blot images were captured with a Kodak 2000 MM imaging system and data were analyzed using 1D Kodak imaging analysis software.
Immunostaining of PKCδ, TH, Ser40 P-TH and Ser31 P-TH was performed in PC12, N27 and primary mesencephalic neurons. Cells were grown on poly-L-Lysine-coated glass cover slips. After treatment, the cells were fixed with 4% paraformaldehyde and processed for immunohistochemical staining. First, non-specific sites were blocked with 5% normal goat serum containing 0.4% BSA and 0.2% Triton-X 100 in PBS for 20 min. Cells were then incubated with antibodies directed against PKCδ (1:500 dilution), TH (1:500 dilution), and P-THSer40 (1:500 dilution) overnight at 4° C. followed by incubation with either Alexa 488-conjugated (green, 1:1000) or Cy3-conjugated (red, 1:1000) secondary antibody for 1 hr at RT. Secondary antibody treatments were followed by incubation with Hoechst 33342 (10 μg/ml) for 3 min at room temperature to stain the nucleus. Then the coverslips containing stained cells were washed with PBS, mounted on a slide, and viewed under a Nikon inverted fluorescence microscope (Model TE-2000U); images were captured with a SPOT digital camera (Diagnostic Instruments, Sterling Heights, Mich.).

cells = conditions: cited from earlier work
3T3 cells = conditions: zinc deficient medium; cited from earlier work
N27 cells = experiment: Cellular DA and DOPAC levels in N27 cells (HPLC-EC); format: cell-based, rat; conditions: N27 cells; rottlerin vs vehicle, PKCδ-DN vs LacZ
Experimental: as §1
DA and DOPAC levels in PC12, N27 cells and in brain striatal tissues were determined by high-performance liquid chromatography with electrochemical detection (HPLC-EC); samples were prepared as described previously (Kitazawa et al., 2001). The DA and DOPAC levels were measured as pg/mg protein and expressed as percent of control.

PKA = conditions: cited from earlier work
PKCδ [2] = target: PKCδ (Homo sapiens, UniProt Q05655); conditions: cited from earlier work
PKCδ (Homo sapiens, UniProt Q05655), sequence (Q05655 whole entry): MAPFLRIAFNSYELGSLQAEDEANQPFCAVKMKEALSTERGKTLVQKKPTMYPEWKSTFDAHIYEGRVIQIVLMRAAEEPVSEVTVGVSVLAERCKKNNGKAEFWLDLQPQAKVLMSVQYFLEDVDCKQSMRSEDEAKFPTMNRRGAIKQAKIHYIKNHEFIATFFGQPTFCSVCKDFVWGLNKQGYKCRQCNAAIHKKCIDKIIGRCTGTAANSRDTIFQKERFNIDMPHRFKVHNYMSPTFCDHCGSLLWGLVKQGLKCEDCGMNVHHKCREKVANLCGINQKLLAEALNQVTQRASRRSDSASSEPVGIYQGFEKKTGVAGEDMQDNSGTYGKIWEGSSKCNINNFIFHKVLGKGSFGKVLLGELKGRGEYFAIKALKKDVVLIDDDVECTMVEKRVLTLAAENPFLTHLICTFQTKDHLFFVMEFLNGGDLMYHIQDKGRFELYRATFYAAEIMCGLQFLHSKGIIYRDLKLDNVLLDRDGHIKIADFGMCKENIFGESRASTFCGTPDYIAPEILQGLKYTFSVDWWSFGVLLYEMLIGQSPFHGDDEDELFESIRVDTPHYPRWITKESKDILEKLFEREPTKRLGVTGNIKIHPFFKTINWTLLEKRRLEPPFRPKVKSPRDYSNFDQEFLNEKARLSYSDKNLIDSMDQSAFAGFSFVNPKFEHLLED

[3] = tested on: tyrosine hydroxylase (TH); experiment: TH activity (DOPA levels after NSD-1015) in N27 cells; format: cell-based, rat; conditions: 2 mM NSD-1015, rottlerin 3 hr vs DMSO, PKCδ-DN vs LacZ
Experimental: Plasmid pPKCδ^K376R-V5 encodes the loss of function PKCδ-V5 epitope tagged mutant protein; K376R refers to the mutation of the lysine residue at position 376 to arginine in the catalytic site resulting in inactivation of the kinase. Plasmid pLacZ-V5 encodes the β-galactosidase protein alone with a V5-epitope and is used as a vector control. N27 cells stably expressing PKCδ^K376R-V5 (herein referred to as PKCδ-DN cells) and LacZ alone-expressing cells (LacZ cells) were cultured as described previously (Kitazawa et al., 2005). PKCδ-DN or LacZ expressing N27 cells were identified by immunostaining of the C-terminal V5 epitope on expressed proteins and were differentiated with cAMP analogs (e.g. dibutyral cAMP) prior to experiments. PKCδ-DN and LacZ were also transiently expressed in mouse primary mesencephalic neurons using an AMAXA® Nucleofector™ kit (AMAXA GmbH, Germany). As described above, primary mesencephalic neurons were prepared from the midbrain of 16-18-day-old mice embryos. After digestion with trypsin-EDTA-HBSS, the primary neurons were homogenously resuspended with transfection buffer provided with the kit to a final concentration of 4-5×10^6 neurons/100 μl and mixed with 1 μg plasmid DNA encoding either PKCδ-DN-V5 or LacZ-V5. […] Transfection efficiency was >75% as determined by immunostaining of V5-expression. […]

PKCδ [4] = target: T1, PKCδ (Mus musculus, UniProt P28867); experiment: PKCδ immunoprecipitation kinase assay on substantia nigra of rottlerin-treated mice; format: in vivo; conditions: 5 days
T1 construct: PKCδ was immunoprecipitated from SN lysates of both rottlerin-mice and vehicle-mice using PKCδ specific polyclonal antibody; from tissue; host or cells: substantia nigra of C57 black mice
T1 sequence (P28867 whole entry): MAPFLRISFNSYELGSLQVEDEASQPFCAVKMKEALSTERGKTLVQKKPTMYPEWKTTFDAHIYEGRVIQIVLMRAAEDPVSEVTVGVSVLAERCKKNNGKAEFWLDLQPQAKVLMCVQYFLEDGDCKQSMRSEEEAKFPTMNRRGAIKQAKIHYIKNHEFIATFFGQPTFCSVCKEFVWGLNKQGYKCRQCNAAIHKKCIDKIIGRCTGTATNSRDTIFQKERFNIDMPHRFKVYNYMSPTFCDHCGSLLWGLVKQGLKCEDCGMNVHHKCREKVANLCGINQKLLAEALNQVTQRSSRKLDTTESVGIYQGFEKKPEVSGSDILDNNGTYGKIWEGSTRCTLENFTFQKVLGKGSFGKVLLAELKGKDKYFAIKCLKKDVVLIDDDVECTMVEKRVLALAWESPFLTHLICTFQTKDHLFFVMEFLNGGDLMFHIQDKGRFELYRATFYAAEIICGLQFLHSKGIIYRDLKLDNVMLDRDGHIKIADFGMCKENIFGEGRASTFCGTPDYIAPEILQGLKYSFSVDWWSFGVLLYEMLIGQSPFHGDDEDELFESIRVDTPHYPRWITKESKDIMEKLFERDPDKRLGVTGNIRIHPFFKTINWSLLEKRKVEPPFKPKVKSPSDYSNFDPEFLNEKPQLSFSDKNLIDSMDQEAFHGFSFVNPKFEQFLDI
Experimental: Rottlerin was dissolved in 1% dimethyl sulfoxide (DMSO) and was administered intraperitoneally at various doses. An equal volume of DMSO was given to controls.
PKCδ enzymatic activity was assayed using an immunoprecipitation kinase assay as described by Reyland et al. (Reyland, Anderson et al. 1999). Briefly, after treatment with rottlerin, substantia nigra brain tissue were washed once with PBS and resuspended in 1 ml of PKC lysis buffer (25 mM HEPES, pH 7.5, 20 mM β-glycerophosphate, 0.1 mM sodium orthovanadate, 0.1% Triton X-100, 0.3 M NaCl, 1.5 mM MgCl2, 0.2 mM EDTA, 0.5 mM DTT, 10 mM NaF, and 4 μg/ml each aprotonin and leupeptin). The lysates were allowed to sit on ice for 30 min and centrifuged at 13,000×g for 5 min, and the supernatants were collected as cytosolic fraction. Protein concentration was determined using a Bradford assay. Cytosolic protein (0.25-0.5 mg) was immunoprecipitated overnight at 4° C. using 2 μg of anti-PKCδ antibody. The immunoprecipitates were then incubated with Protein-A Sepharose (Sigma) for 1 hr at 4° C. The protein A bound antigen-antibody complexes were then washed three times with PKC lysis buffer, three times with 2× kinase buffer (40 mM Tris, pH 7.4, 20 mM MgCl2, 20 μM ATP, and 2.5 mM CaCl2), and resuspended in 20 μl of 2× kinase buffer. Reaction was started by adding 20 μl of reaction buffer containing 0.4 mg Histone H1, 50 μg/ml phosphatidylserine, 4.1 μM dioleoylglycerol, and 5 μCi of [γ-^32P] ATP (3000 Ci/mM) to the immunoprecipitated samples and incubated for 10 min at 30° C. SDS gel-loading buffer (2×) was added to terminate the reaction, the samples were boiled for 5 min, and the products were separated on a 12.5% SDS-PAGE gel. The H1 phosphorylated bands were detected using a Personal Molecular Imager (FX model; Bio-Rad), and quantification was done using Quantity One 4.2.0 software.

CC(=O)c1c(O)c(C)c(O)c(Cc2c(O)c3c(c(C(=O)/C=C/c4ccccc4)c2O)OC(C)(C)C=C3)c1O [rottlerin]
inhibition (casein kinase II): weak inhibitor | reduction of PP2A activity (PP2A): 31% | TH-ser40 phosphorylation, densitometry of 60 kDa band, increase versus vehicle [1]: 3 fold | THser31 phosphorylation level [1]: unaltered | level of total TH [1]: unaltered | increase in TH-ser40 stained cells compared to DMSO-treated cells ([1]; immunofluorescence cell count): 333% | asbestos-induced apoptosis (cells): inhibited | cell number (3T3 cells): restored | proteolysis of PKC-delta, activated caspase-3 (3T3 cells): reduced or eliminated | DA level (N27 cells): 2748±208 pg/μg protein | DOPAC levels (N27 cells): 2564±848.19 pg/μg protein | increase in DA level (N27 cells): 4 fold | increase in DOPAC levels (N27 cells): 4 fold | inhibition (PKA): weak inhibitor | IC50 (PKCδ [2]): 3 to 6 µM | TH activity [3]: 3025±266.7 pg DOPA/10^6 cells/hr | reduction in the kinase activity in SN (PKCδ [4]; i.p. injection with 3 mg rottlerin): more than 30% | reduction in the kinase activity in SN (PKCδ [4]; i.p. injection with 7 mg rottlerin): more than 30% | decrease in protein kinase activity in SN (phosphorylated histone H1 bands) (PKCδ [4]; orally treated with 10 mg rottlerin): 40% | decrease in protein kinase activity in SN (phosphorylated histone H1 bands) (PKCδ [4]; orally treated with 20 mg rottlerin): 50%
